# Like-named read-outs stand apart in the source and are kept apart here. *1 amine or outer side, *2 acyl side, *3 side chain or, on linkers, in order; H or OH if unused. Where a SMILES comes first, the peptide text is derived from it. Bridges are numbered along the chain shown (N, C = ends). [ ]: non-standard residue; d: D form. The star is where a group is joined. X25 = O=C([C@H](Cc1ccc(C(F)(F)F)cc1)N(CCC(F)(F)F)[*:1])[*:2]; hPhe(3-Cl-4-CF3) = N[C@@H](CCc1ccc(C(F)(F)F)c(Cl)c1)C(=O)O; NMePhe(4-Me) = CN[C@@H](Cc1ccc(C)cc1)C(=O)O; NMeGly(cPent) = CN[C@H](C(=O)O)C1CCCC1; NMeD = CN[C@@H](CC(=O)O)C(=O)O; NMeL = CN[C@@H](CC(C)C)C(=O)O; NMeS = CN[C@@H](CO)C(=O)O; Morpholide = C1CN(*)CCO1; NMeA = CN[C@@H](C)C(=O)O; Ac5c = NC1(C(=O)O)CCCC1; Aze = O=C(O)[C@@H]1CCN1; Sar = CNCC(=O)O
# Key:
# [1] = target: GDP-bound NRAS wild-type protein (Homo sapiens, UniProt P01111); experiment: Binding to NRAS by surface plasmon resonance (SPR), KD and KD ratio to KRAS
# Sequence of GDP-bound NRAS wild-type protein (P01111 whole entry): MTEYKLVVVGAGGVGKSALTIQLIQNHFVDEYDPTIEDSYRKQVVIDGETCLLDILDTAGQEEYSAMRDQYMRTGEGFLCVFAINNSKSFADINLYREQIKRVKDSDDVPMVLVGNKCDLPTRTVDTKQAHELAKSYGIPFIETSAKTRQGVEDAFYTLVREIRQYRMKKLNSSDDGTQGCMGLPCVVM
# Procedure, shortened: (§1)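 SPR, 30°C: Avi-biotin RAS·GDP captured via Biotin CAPture (~100–300 RU); running buffer HBS pH 7.4, 1 mM DTT, 10 mM MgCl2, 0.01% Tween 20, 10 µM GDP, 4% DMSO. Single-cycle kinetics, 100 µL/min, 75 s injections; 1:1 model → KD.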
# [2] = test system: human lung cancer strain NCI-H441; assay type: cell-based
# Procedure, shortened: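 Proliferation was scored by […] measured after the reagent was added to cultures kept at 37°C in 5% carbon dioxide.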
# [3] = target: HRAS wild-type protein (Homo sapiens, UniProt P01112); experiment: Binding to HRAS by surface plasmon resonance (SPR), KD and KD ratio to KRAS
# Sequence of HRAS wild-type protein (P01112 whole entry): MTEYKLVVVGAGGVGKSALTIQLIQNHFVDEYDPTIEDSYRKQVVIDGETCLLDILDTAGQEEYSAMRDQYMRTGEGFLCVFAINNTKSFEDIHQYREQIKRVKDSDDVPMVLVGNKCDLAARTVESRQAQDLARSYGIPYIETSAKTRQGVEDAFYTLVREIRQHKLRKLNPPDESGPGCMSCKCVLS
# Procedure, shortened: as §1
# [4] = ratio of KD value for GDP-bound NRAS wild-type protein to KD value for KRAS (SPR)
# [5] = ratio of KD value for HRAS wild-type protein to KD value for KRAS (SPR)
# [6] = ratio of the KD value with respect to GDP-bound NRAS wild-type protein to the KD value with respect to KRAS
# [7] = ratio of the KD value with respect to HRAS wild-type protein to the KD value with respect to KRAS
# [8] = ratio of KD for GDP-bound NRAS wild-type protein to KD for KRAS
# [9] = ratio of KD for HRAS wild-type protein to KD for KRAS
SMILES,IC50 [2],"NRAS /KRAS [1, 4]","HRAS /KRAS [3, 5]","NRAS /KRAS [1, 6]","HRAS /KRAS [3, 7]","NRAS /KRAS [1, 8]","HRAS /KRAS [3, 9]","IC50 ([2]; NCI-H441 cells, 4 days, CellTiter-Glo, read-out: NCl-H441 IC50)"
CC[C@H](C)[C@@H]1NC(=O)[C@H](CC)N(C)C(=O)C[C@@H](C(=O)N(C)C)N(C)C(=O)[C@H](C2CCCC2)N(C)C(=O)C2(CC(C)(C)C2)NC(=O)[C@@H]2C[C@H](C)CN2C(=O)[C@H](CCc2cc(F)c(C(F)(F)F)c(F)c2)NC(=O)CN(C)C(=O)[C@H](Cc2ccc(C)cc2)N2CC/C=C\C[C@@H](C2=O)N(C)C(=O)CN(C)C1=O [PP1856],1.4 nM,A (a compound having 10 or more and less than 20 is denoted as A),A (a compound having 10 or more and less than 20 is denoted as A),,,,,
CCO[C@@H]1C[C@H]2C(=O)NC3(CCC3)C(=O)N(C)[C@@H](C3CCCC3)C(=O)N(C)[C@H](C(=O)N3CCOCC3)CC(=O)N(C)[C@@H](CCOC)C(=O)N[C@@H]([C@@H](C)CC)C(=O)N(C)CC(=O)N(C)[C@H]3CCCCN(C3=O)[C@@H](Cc3ccc(C(F)(F)F)cc3)C(=O)N(C)CC(=O)N[C@@H](CCc3cc(F)c(C(F)(F)F)c(F)c3)C(=O)N2C1 [PP0720],13.7 nM,,,C (A compound having a KD ratio of 0.1 or more and less than 3 is denoted as C),B (a compound having 3 or more and less than 10 is denoted as B),,,
CC[C@H](C)[C@@H]1NC(=O)[C@H](CC(C)C)N(C)C(=O)C[C@@H](C(=O)N2CCOCC2)N(C)C(=O)[C@H](C2CCCC2)N(C)C(=O)C2(CCCC2)NC(=O)[C@@H]2CCCN2C(=O)[C@H](CCc2ccc(C(F)(F)F)c(Cl)c2)NC(=O)CN(C)C(=O)[C@H](Cc2ccc(C)cc2)N(C)C(=O)[C@H](CO)N(C)C(=O)CN(C)C1=O [PP0037] ([NMeL]I[Sar][NMeS][NMePhe(4-Me)][Sar][hPhe(3-Cl-4-CF3)]P[Ac5c][NMeGly(cPent)][NMeD]-Morpholide; lactam N-11),430 nM,,,,,C (A compound having a KD ratio of 0.1 or more and less than 3 is denoted as C),C (A compound having a KD ratio of 0.1 or more and less than 3 is denoted as C),
CCC[C@H]1C(=O)N[C@@H]([C@@H](C)CC)C(=O)N(C2CC2)CC(=O)N(C)[C@H]2C/C=C\CCN(C2=O)[C@@H](Cc2ccc(C)cc2)C(=O)N(C)CC(=O)N[C@@H](CCc2ccc(C3CC3)c(F)c2)C(=O)N2C[C@H](OCC)C[C@H]2C(=O)NC2(CC(C)(C)C2)C(=O)N(C)[C@@H](C2CCCC2)C(=O)N(C)[C@H](C(=O)N(C)C)CC(=O)N1C [PP2884],,,,,,A (a compound having 10 or more and less than 20 is denoted as A),A (a compound having 10 or more and less than 20 is denoted as A),35.9 nM
CCO[C@@H]1C[C@H]2C(=O)NC3(CC(C)(C)C3)C(=O)N(C)[C@@H](C3CCCC3)C(=O)N(C)[C@H](C(=O)N3CCCC3)CC(=O)N(C)[C@@H](CC)C(=O)N[C@@H]([C@@H](C)CC)C(=O)N(C)CC(=O)N(C)[C@H]3C/C=C\CCN(C3=O)[C@@H](Cc3ccc(C(F)(F)F)cc3)C(=O)N(C)CC(=O)N[C@@H](CCc3cc(F)c(C(F)(F)F)c(F)c3)C(=O)N2C1 [PP1944],14.8 nM,,,A (a compound having 10 or more and less than 20 is denoted as A),A (a compound having 10 or more and less than 20 is denoted as A),,,
CCO[C@@H]1C[C@H]2C(=O)NC3(CCC3)C(=O)N(C)[C@@H](C3CCCC3)C(=O)N(C)[C@H](C(=O)N(C)C)CC(=O)N(C)[C@@H](CC)C(=O)N[C@@H]([C@@H](C)CC)C(=O)N(C)CC(=O)N(C)[C@H]3CCCCN(C3=O)[C@@H](Cc3ccc(C(F)(F)F)cc3)C(=O)N(C)CC(=O)N[C@@H](CCc3ccc(OC(F)F)c(F)c3)C(=O)N2C1 [PP0986],45.9 nM,,,,,C (A compound having a KD ratio of 0.1 or more and less than 3 is denoted as C),C (A compound having a KD ratio of 0.1 or more and less than 3 is denoted as C),
CC[C@H](C)[C@@H]1NC(=O)[C@H](CC(C)C)N(C)C(=O)C[C@@H](C(=O)N2CCOCC2)N(C)C(=O)[C@H](C2CCCC2)N(C)C(=O)C2(CCCC2)NC(=O)[C@@H]2CCCN2C(=O)[C@H](CCc2ccc(C(F)(F)F)c(Cl)c2)NC(=O)CN(C)C(=O)[C@H](Cc2ccc(C(F)(F)F)cc2)N(CCC(F)(F)F)C(=O)[C@@H]2CCN2C(=O)[C@H](C)N(C)C1=O [PP0117] ([NMeL]I[NMeA][Aze][X25][Sar][hPhe(3-Cl-4-CF3)]P[Ac5c][NMeGly(cPent)][NMeD]-Morpholide; lactam N-11),9.2 nM,,,,,B (a compound having 3 or more and less than 10 is denoted as B),B (a compound having 3 or more and less than 10 is denoted as B),
CCO[C@@H]1C[C@H]2C(=O)NC3(CCC3)C(=O)N(C)[C@@H](C3CCCC3)C(=O)N(C)[C@H](C(=O)N(C)C)CC(=O)N(C)[C@@H](Cc3cccnc3)C(=O)N[C@@H]([C@@H](C)CC)C(=O)N(C)CC(=O)N(C)[C@H]3CCCCCN(C3=O)[C@@H](Cc3ccc(C(F)(F)F)cc3)C(=O)N(C)CC(=O)N[C@@H](CCc3cc(F)c(C(F)(F)F)c(F)c3)C(=O)N2C1 [PP0673],52.5 nM,,,B (a compound having 3 or more and less than 10 is denoted as B),B (a compound having 3 or more and less than 10 is denoted as B),,,

# The next lines start with results.
IC50 [2],SMILES,"NRAS /KRAS [1, 4]","HRAS /KRAS [3, 5]","NRAS /KRAS [1, 6]","HRAS /KRAS [3, 7]","NRAS /KRAS [1, 8]","HRAS /KRAS [3, 9]","IC50 ([2]; NCI-H441 cells, 4 days, CellTiter-Glo, read-out: NCl-H441 IC50)"
5.5 nM,CCCOC[C@H]1C(=O)N[C@@H]([C@@H](C)CC)C(=O)N(C2CC2)CC(=O)N(C)[C@H]2C/C=C\CCN(C2=O)[C@@H](Cc2ccc(C)cc2)C(=O)N(C)CC(=O)N[C@@H](CCc2ccc(C(F)(F)F)c(OC)c2)C(=O)N2C[C@H](OCC)C[C@H]2C(=O)N(C)C2(CCC2)C(=O)N(C)[C@@H](C2CCCC2)C(=O)N(C)[C@H](C(=O)N(C)C)CC(=O)N1C [PP2330],,,A (a compound having 10 or more and less than 20 is denoted as A),A (a compound having 10 or more and less than 20 is denoted as A),,,
86.8 nM,CCO[C@@H]1C[C@H]2C(=O)NC3(CC(C)(C)C3)C(=O)N(C)[C@@H](C(CC)CC)C(=O)N3CCC[C@@H]3CC(=O)N(C)[C@@H](CC3CC3)C(=O)N[C@@H]([C@@H](C)CC)C(=O)N(C)CC(=O)N(C)[C@H]3C/C=C\CCN(C3=O)[C@@H](Cc3ccc(C(F)(F)F)cc3)C(=O)N(C)CC(=O)N[C@@H](CCc3cc(F)c(C(F)(F)F)c(F)c3)C(=O)N2C1 [PP1610],A (a compound having 10 or more and less than 20 is denoted as A),A (a compound having 10 or more and less than 20 is denoted as A),,,,,
18.7 nM,CCO[C@@H]1C[C@H]2C(=O)NC3(CC(C)(C)C3)C(=O)N(C)[C@@H](C(CC)CC)C(=O)N(C)[C@H](C(=O)N(C)C)CC(=O)N(C)[C@@H](CC3CC3)C(=O)N[C@@H]([C@@H](C)CC)C(=O)N(C)CC(=O)N(C)[C@H]3C/C=C\CCN(C3=O)[C@@H](Cc3ccc(C(F)(F)F)cc3)C(=O)N(C)CC(=O)N[C@@H](CCc3ccc(C(F)(F)F)c(Cl)c3)C(=O)N2C1 [PP2124],,,AA (a compound having 20 or more is denoted as AA),A (a compound having 10 or more and less than 20 is denoted as A),,,
3 nM,CCO[C@@H]1C[C@H]2C(=O)NC3(CC(C)(C)C3)C(=O)N(C)[C@@H](C3CCCC3)C(=O)N(C)[C@H](C(=O)N(C)C)CC(=O)N(C)[C@H]3CCCC/C=C/c4ccc(cc4)C[C@@H](C(=O)N(C)CC(=O)N[C@@H](CCc4cc(F)c(C(F)(F)F)c(F)c4)C(=O)N2C1)N1CC/C=C\C[C@@H](C1=O)N(C)C(=O)CN(C)C(=O)[C@H]([C@@H](C)CC)NC3=O [PP1831],A (a compound having 10 or more and less than 20 is denoted as A),A (a compound having 10 or more and less than 20 is denoted as A),,,,,
631 nM,CCCN1C(=O)[C@H](C2CCCC2)N(C)C(=O)C2(CCC2)NC(=O)[C@@H]2C[C@@H](OCC)CN2C(=O)[C@H](CCc2cc(F)c(C(F)(F)F)c(F)c2)NC(=O)CN(C)C(=O)[C@H](Cc2ccc(C(F)(F)F)cc2)N2CCCCC[C@@H](C2=O)N(C)C(=O)CN(C)C(=O)[C@H]([C@@H](C)CC)NC(=O)[C@H](CC(C)C)N(C)C(=O)C[C@H]1C(=O)N1CCOCC1 [PP0639],,,B (a compound having 3 or more and less than 10 is denoted as B),B (a compound having 3 or more and less than 10 is denoted as B),,,
12.3 nM,CC[C@H](C)[C@@H]1NC(=O)[C@H](CC)N(C)C(=O)C[C@@H](C(=O)N(C)C)N(C)C(=O)[C@H](C2CCCC2)N(C)C(=O)C2(CC(C)(C)C2)NC(=O)[C@@H]2C[C@H](C)CN2C(=O)[C@H](CCc2ccc(C(F)(F)F)c(Cl)c2)NC(=O)CN(C)C(=O)[C@H](Cc2ccc(C)cc2)N2CC/C=C\C[C@@H](C2=O)N(C)C(=O)CN(C)C1=O [PP1844],A (a compound having 10 or more and less than 20 is denoted as A),B (a compound having 3 or more and less than 10 is denoted as B),,,,,
15.8 nM,CCO[C@@H]1C[C@H]2C(=O)NC3(CCC3)C(=O)N(C)[C@@H](C3CCCC3)C(=O)N(C)[C@H](C(=O)N3CCOCC3)CC(=O)N(C)[C@@H](CC)C(=O)N[C@@H]([C@@H](C)CC)C(=O)N(C)CC(=O)N(C)[C@H]3C/C=C\CCN(C3=O)[C@@H](Cc3ccc(C(F)(F)F)cc3)C(=O)N(C)CC(=O)N[C@@H](CCc3cc(F)c(C(F)(F)F)c(F)c3)C(=O)N2C1 [PP1092],,,,,A (a compound having 10 or more and less than 20 is denoted as A),A (a compound having 10 or more and less than 20 is denoted as A),

# Reference: patent EP4603105A1, “PHARMACEUTICAL COMPOSITION CONTAINING CYCLIC COMPOUND HAVING SELECTIVE KRAS INHIBITORY EFFECT AGAINST HRAS AND NRAS” (CHUGAI SEIYAKU KABUSHIKI KAISHA, priority 2022, dated 2024)
